# Source: the METLIN SMRT retention time set (Domingo-Almenara et al. 2019)
# Assay: gradient 5% acetonitrile 3 min, to 50% in 2 min, to 85% in 15 min, held 3 min, 100 µL/min
# Conditions: column: Zorbax Extend-C18 2.1 x 50 mm; eluents: water / acetonitrile, 0.1% formic acid
# Procedure, shortened: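 Retention times of pure standards were taken from adduct peaks that were selected by computer and manually inspected. Over 3 months, mixtures of ~100 molecules were run by HPLC–quadrupole time-of-flight mass spectrometry in positive and negative ionization mode. The Zorbax Extend-C18 column (2.1 × 50 mm, 1.8 μm) ran at 100 μL/min in water and acetonitrile, each containing 0.1% formic acid, with 40 μL dead volume and 900 μL dwell volume.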
row,Structure (SMILES),RP-LC retention time
1,CCN1C(=O)COc2ccc(-c3csc(NC(=O)c4ccc(Br)cc4)n3)cc21,1080 s
2,CCOC(=O)C1CCN(C(=O)c2cc3sc(C)cc3n2C)CC1,951 s
3,CC1CN(Cc2ccccc2)c2nc3c(c(=O)n(CCN4CCOCC4)c(=O)n3C)n2C1 (stereo not given),666 s
4,Cc1c(S(=O)(=O)NCCC2CCN(C(=O)c3ccc(F)cc3)CC2)cnn1C(F)F,813 s
5,O=C(Nc1ccc2c(c1)CCCN2C(=O)c1ccco1)c1ccccc1C(F)(F)F,792 s
6,Cc1ccc(N2C(=O)CN(S(C)(=O)=O)CC2(C)C(=O)NCc2ccc(F)cc2)c(C)c1 (stereo not given),834 s
7,CCOC(=O)c1[nH]c(C)c(CCC(=O)N2CCC(C(=O)NCCOC)CC2)c1C,628 s
8,O=C(NCC1CCCO1)c1ccc([N+](=O)[O-])cc1Cl (stereo not given),664 s
9,O=C(Cn1cnc2nc3c(cc2c1=O)CCCC3)NCc1cccc(Br)c1,756 s
10,CC(NC(=O)c1ccc2c(c1)nc1n2CCN(Cc2ccccc2)C1=O)c1cccnc1 (stereo not given),616 s
11,O=C1CC(c2ccccc2)Cc2nc(N3CCN(c4ccccn4)CC3)ncc21 (stereo not given),624 s
12,CCn1nccc1C(=O)Nc1c(-c2ccccc2)nc2sc(N3CCCCC3)nn12,893 s
13,Cc1cccc(-n2c(N3CCCC(C(=O)NCc4cccs4)C3)nc3ccsc3c2=O)c1 (stereo not given),876 s
14,O=C(NC1CCN(c2cc(-c3ccc(Cl)cc3)[nH]n2)C1)c1ccc(F)c(F)c1 (stereo not given),839 s
15,Cc1nnc(NC(=O)CSc2nnc(-c3ccccc3F)o2)s1,700 s
16,CCCCc1ccc(NC(=O)CSc2ccc(N3CCCC(C(=O)NCCC)C3)nn2)cc1 (stereo not given),860 s
17,Cc1noc(/C=C\c2ccc(S(=O)(=O)N3CCOCC3)cc2)c1NC(=O)C1CC1,777 s
18,Cn1cccc1CN(Cc1cccs1)C(=O)Cn1c(=O)oc2ccccc21,899 s
19,CCN(CC)C(=O)c1ccc2oc(CN3CCN(C(=O)NC4CCCC4)CC3)nc2c1,630 s
20,CC[C@@H]1C(=O)N(C)c2cnc(Nc3ccc(C(=O)NC4CCN(C)CC4)cc3OC)nc2N1C1CCCC1,624 s
21,CCN(CC)Cc1cc2[nH]c3c4ccc(Cl)cc4ncc3c2cc1OC,747 s
22,O=C(c1ccccc1Br)N1CCc2nc(-c3ccc(F)cc3)ncc2C1,1010 s

row,Structure (SMILES),RP-LC retention time
1,COc1cccc(-c2nc(C3CCN(S(=O)(=O)c4cccc(F)c4)CC3)no2)c1,1110 s
2,Cc1cccc(OCc2nc(C)c(C(=O)Nc3nc(-c4ccccc4)cs3)s2)c1,1230 s
3,CCc1sc(NC(=O)c2cc3c([nH]c2=O)CCCC3=O)nc1-c1ccc(C)c(C)c1,1030 s
4,COc1ccc(NC(=O)N2CC3CCCN3c3ccccc32)c(OC)c1 (stereo not given),1090 s
5,Nc1nc(SCC(=O)Nc2cccc(-c3nc4ccccc4s3)c2)n[nH]1,667 s
6,O=C(COc1ccc(F)c(F)c1)Nc1cnc(-c2cccnc2)nc1,717 s
7,Cc1oc(C(=O)O)cc1COc1ccc2c(oc(=O)c3ccccc32)c1C,927 s
8,CCOC(=O)c1c(C)c(CCC(=O)N2CCN(c3ccccn3)CC2)n(C)c1C,616 s
9,CCS(=O)(=O)c1nc2ccc(NS(=O)(=O)c3cc(F)ccc3F)cc2s1,854 s
10,Cc1ccc(C(=O)Nc2c(-c3ccc(F)cc3)nc3ccccn23)cc1[N+](=O)[O-],701 s
11,Cc1ccc2c(Nc3ccc4c(c3)OCCO4)c(C(=O)N3CCCC(C)C3)cnc2n1 (stereo not given),645 s
12,O=C(NCc1csc(C2CCN(C(=O)c3cc(F)ccc3F)CC2)n1)C1CC1,668 s
13,O=C(CCc1c(-c2ccc(Cl)cc2)nc2ccccn12)NC1CCCC1,638 s
14,CCn1ccc2c(cc(C(=O)Nc3ccc(F)cc3)n2C)c1=O,754 s
15,Cn1c(=O)c(NCCc2c[nH]c3ccccc23)nc2ccncc21,619 s
16,CCOc1ccc(Cl)cc1S(=O)(=O)N1CCC(C(=O)NCCCOC)CC1,761 s
17,CS(=O)(=O)Nc1cccc(NC(=O)Cn2cccn2)c1,970 s
18,CCN(CC)C(=O)Cn1c(CO)nc2ccccc21,563 s
19,Cc1ccc(S(=O)(=O)N(C)c2ccc(C(=O)N3C(C)CCCC3C)cc2)cc1 (stereo not given),961 s
20,COc1ccc(CNC(=O)c2ccc3c(c2)NC(=O)C2CCCCN32)cc1OC (stereo not given),719 s
21,O=C1NCCc2c(OCC(=O)N3N=C(c4cccs4)CC3c3ccc(F)cc3)cccc21 (stereo not given),787 s
22,CC(C)NC(=O)C1CC(=O)N(CCc2c[nH]c3ccc(F)cc23)C1 (stereo not given),691 s

row,Structure (SMILES),RP-LC retention time
1,Nc1ccc2c(c1)S(=O)(=O)c1cc(N)ccc1-2,635 s
2,COc1ccc(NC(=O)c2nnc(CCCC(=O)NCCc3c[nH]c4ccc(C)cc34)s2)cc1,992 s
3,CSc1ccc(-c2noc(CN3C(=O)COc4cc(C)ccc43)n2)cc1,1130 s
4,COC(=O)c1cccc(NC(=O)NC(C(=O)N2CCc3ccccc32)C(C)C)c1 (stereo not given),610 s
5,Cc1cc(Cl)ccc1NS(=O)(=O)c1cc(-c2nc(C(C)(C)C)cs2)cs1,1360 s
6,Cc1ccc(S(=O)(=O)N2CCCN(C)c3ccccc32)cc1C,603 s
7,Cc1ncn(CC(=O)Nc2ccc(F)cc2F)c(=O)c1C,642 s
8,CCOC1CCOC2(CCN(C(=O)c3ccco3)CC2)C1 (stereo not given),691 s
9,CCOc1ccccc1-n1ccn(Cc2nc(-c3cccc(OC)c3)no2)c(=O)c1=O,856 s
10,COc1ccc(CC(=O)Nc2nnc(-c3ccsc3)o2)cc1OC,655 s
11,O=C(NCCN1CCCCC1)c1cc2n(n1)CCCN(Cc1ccc(Cl)cc1)C2=O,642 s
12,Cc1nn(-c2ccc(F)cc2)c(C)c1S(=O)(=O)N1CCC(C(=O)N2CCCC2)CC1,790 s
13,CCCS(=O)(=O)c1nc2ccc(NS(=O)(=O)c3ccc(C(C)C)cc3)cc2s1,1050 s
14,Cc1ccc(CN2CCC(c3nc(-c4cnccn4)n[nH]3)CC2)c(C)c1,593 s
15,COc1ccc(-c2noc(Cn3c(=O)n(C(C)C)c(=O)c4ccccc43)n2)cc1OC,1000 s
16,Cc1ccc(NC(=O)CSc2nc(=O)n(CCN(C)C)c3c2CCC3)cc1F,646 s
17,Cc1ccc2c(c1)N(CCCC(=O)N1CCN(c3cc(=O)n(C)c(=O)n3C)CC1)C(=O)CO2,700 s
18,COc1ccc(-c2noc(Cn3ccn(-c4cc(C)cc(C)c4)c(=O)c3=O)n2)cc1OC,834 s
19,CCC(=O)N1CCN(c2nc3c(s2)CC(C(=O)Nc2ccc(Cl)c(C)c2)CC3)CC1 (stereo not given),607 s
20,CCCNC(=O)N1[C@H]2CC[C@@H]1c1cnc(-c3ccccc3)nc1C2,790 s
21,NC(=O)c1cc(-c2ccccc2F)nc2ccccc12,740 s
